Assay results as given in ChEMBL document CHEMBL4316614, “Design, synthesis and biological evaluation of 1,4-dihydroxyanthraquinone derivatives as anticancer agents” (Bioorg Med Chem Lett, 2019).
Calls of active or inactive are those of the source. The calls are words filed in the database; no cut-off is given here.

How the values were obtained:
L02 = assay: Cytotoxicity against human L02 cells assessed as inhibition of cell growth measured after 72 hrs by MTT assay; type: cell-based; settings: L02, 72 h
DNA topoisomerase II [1] = biological target: T1, DNA topoisomerase II (Homo sapiens, UniProt P11388+Q02880); assay: Inhibition of topoisomerase 2 in human HepG2 cells assessed as reduction in cell growth measured after 72 hrs by MTT assay; type: cell-based
DNA topoisomerase II [2] = biological target: T1, DNA topoisomerase II; assay: Inhibition of topoisomerase 2 in human CNE1 cells assessed as reduction in cell growth measured after 72 hrs by MTT assay; type: cell-based
DNA topoisomerase II [3] = biological target: T1, DNA topoisomerase II; assay: Inhibition of topoisomerase 2 in human MCF7 cells assessed as reduction in cell growth measured after 72 hrs by MTT assay; type: cell-based
DNA topoisomerase II [4] = biological target: T1, DNA topoisomerase II; assay: Inhibition of topoisomerase 2 in human A549 cells assessed as reduction in cell growth measured after 72 hrs by MTT assay; type: cell-based
DNA topoisomerase II [5] = biological target: T1, DNA topoisomerase II; assay: Inhibition of topoisomerase 2 in human HeLa cells assessed as reduction in cell growth measured after 72 hrs by MTT assay; type: cell-based
DNA topoisomerase II [6] = biological target: T1, DNA topoisomerase II; assay: Inhibition of topoisomerase 2 in human MDA-MB-231 cells assessed as reduction in cell growth measured after 72 hrs by MTT assay; type: cell-based
HepG2 [7] = assay: Induction of apoptosis in human HepG2 cells assessed as apoptotic cells at 8 uM measured after 48 hrs by Annexin V-APC staining based flow cytometry (reference value: 5.37%); type: functional
HepG2 [8] = assay: Induction of morphological changes in human HepG2 cells assessed as nuclear deformation at 2 to 16 uM by confocal microscopic analysis; type: functional, cell-based
[9] = Drug uptake in cytoplasm of human HepG2 cells at 2 to 16 uM by confocal microscopic analysis; type: ADME, subcellular; settings: hepg2, 16 µM
HepG2 [10] = assay: Induction of morphological changes in human HepG2 cells assessed as appearance of foamy nucleus at 2 to 16 uM by confocal microscopic analysis; type: functional, cell-based
HepG2 [11] = assay: Induction of apoptosis in human HepG2 cells measured after 48 hrs by Annexin V-APC staining based flow cytometry; type: functional, cell-based
HepG2 [12] = assay: Induction of apoptosis in human HepG2 cells assessed as formation of granular apoptotic body formation at 4 to 16 uM measured after 48 hrs by Hoechst 33342 staining based fluorescence microscopic analysis; type: functional, cell-based
HepG2 [13] = assay: Induction of apoptosis in human HepG2 cells assessed as cell shrinkage at 4 to 16 uM measured after 48 hrs by Hoechst 33342 staining based fluorescence microscopic analysis; type: functional
HepG2 [14] = assay: Induction of morphological changes in human HepG2 cells assessed as nuclear shrinkage at 2 to 16 uM by confocal microscopic analysis; type: functional, cell-based
HepG2 [15] = assay: Induction of apoptosis in human HepG2 cells assessed as apoptotic cells at 32 uM measured after 48 hrs by Annexin V-APC staining based flow cytometry (reference value: 5.37%); type: functional
[16] = Drug uptake in nucleus of human HepG2 cells at 2 to 16 uM by confocal microscopic analysis; type: ADME, subcellular; settings: hepg2, 16 µM
HepG2 [17] = assay: Induction of apoptosis in human HepG2 cells assessed as apoptotic cells at 4 uM measured after 48 hrs by Annexin V-APC staining based flow cytometry (reference value: 5.37%); type: functional
HepG2 [18] = assay: Induction of apoptosis in human HepG2 cells assessed as apoptotic cells at 16 uM measured after 48 hrs by Annexin V-APC staining based flow cytometry (reference value: 5.37%); type: functional

| IC50 (DNA topoisomerase II [1]) | IC50 (DNA topoisomerase II [2]) | IC50 (DNA topoisomerase II [3]) | IC50 (DNA topoisomerase II [4]) | IC50 (DNA topoisomerase II [5]) | IC50 (DNA topoisomerase II [6]) | Drug uptake [9] | Drug uptake [16] | SMILES | IC50 (L02) | Activity (HepG2 [7]) | Activity (HepG2 [8]) | Activity (HepG2 [10]) | Activity (HepG2 [11]) | Activity (HepG2 [12]) | Activity (HepG2 [13]) | Activity (HepG2 [14]) | Activity (HepG2 [15]) | Activity (HepG2 [17]) | Activity (HepG2 [18]) |
| --- | --- | --- | --- | --- | --- | --- | --- | --- | --- | --- | --- | --- | --- | --- | --- | --- | --- | --- | --- |
| > 50 µM | > 50 µM | > 50 µM | > 50 µM | > 50 µM | > 50 µM |  |  | CSc1ccc(C(O)c2cc(O)c3c(c2O)C(=O)c2ccccc2C3=O)cc1 (centres undefined) | > 50 µM |  |  |  |  |  |  |  |  |  |  |
| 44.7 µM | 23.6 µM | > 50 µM | 35.8 µM | 42.3 µM | > 50 µM |  |  | Cc1ccc(C(O)c2cc(O)c3c(c2O)C(=O)c2ccccc2C3=O)s1 (centres undefined) | > 50 µM |  |  |  |  |  |  |  |  |  |  |
| > 50 µM | > 50 µM | > 50 µM | > 50 µM | > 50 µM | > 50 µM |  |  | O=C1c2ccccc2C(=O)c2c(O)c(C(O)c3ccsc3)cc(O)c21 (centres undefined) | > 50 µM |  |  |  |  |  |  |  |  |  |  |
| 26.5 µM | 13.7 µM | 30.5 µM | 22.3 µM | 32 µM | 39.5 µM |  |  | O=C1c2ccccc2C(=O)c2c(O)c(C(O)c3ccc(OC(F)(F)F)cc3)cc(O)c21 (centres undefined) | > 50 µM |  |  |  |  |  |  |  |  |  |  |
| 14.9 µM | 13.7 µM | 27.4 µM | 23.3 µM | 20.7 µM | 38.1 µM |  |  | O=C1c2ccccc2C(=O)c2c(O)c(C(O)c3ccc(C(F)(F)F)cc3)cc(O)c21 (centres undefined) | > 50 µM |  |  |  |  |  |  |  |  |  |  |
| 12.5 µM | 12.7 µM | 28.4 µM | 17.8 µM | 18.9 µM | 34.6 µM | Active | Active | O=C1c2ccccc2C(=O)c2c(O)c(C(O)c3ccc(Cl)cc3Cl)cc(O)c21 (centres undefined) | > 50 µM | 11.56% | Active | Active | Dose-dependent effect | Active | Active | Active | 40.13% | 7.38% | 32.87% |
| 12.8 µM | 16.7 µM | 45.6 µM | 24.1 µM | 29.8 µM | 43.7 µM |  |  | COc1ccc(C(O)c2cc(O)c3c(c2O)C(=O)c2ccccc2C3=O)cc1Br (centres undefined) | > 50 µM |  |  |  |  |  |  |  |  |  |  |
| > 50 µM | > 50 µM | > 50 µM | > 50 µM | > 50 µM | > 50 µM |  |  | CCOc1ccc(C(O)c2cc(O)c3c(c2O)C(=O)c2ccccc2C3=O)cc1 (centres undefined) | > 50 µM |  |  |  |  |  |  |  |  |  |  |
| 12.8 µM | 12.6 µM | 28.6 µM | 17.6 µM | 14.9 µM | 26.9 µM |  |  | N#Cc1ccc(C(O)c2cc(O)c3c(c2O)C(=O)c2ccccc2C3=O)cc1 (centres undefined) | > 50 µM |  |  |  |  |  |  |  |  |  |  |
| 24.4 µM | 17.75 µM | 29.3 µM | 33 µM | 21.2 µM | 47.2 µM |  |  | O=C1c2ccccc2C(=O)c2c(O)c(C(O)c3ccc(Cl)s3)cc(O)c21 (centres undefined) | > 50 µM |  |  |  |  |  |  |  |  |  |  |
| > 50 µM | > 50 µM | > 50 µM | > 50 µM | > 50 µM | > 50 µM |  |  | COc1ccc(C(O)c2cc(O)c3c(c2O)C(=O)c2ccccc2C3=O)cc1OC (centres undefined) | > 50 µM |  |  |  |  |  |  |  |  |  |  |

Second part, the compound before the results:

| SMILES | IC50 (DNA topoisomerase II [1]) | IC50 (DNA topoisomerase II [2]) | IC50 (DNA topoisomerase II [3]) | IC50 (DNA topoisomerase II [4]) | IC50 (DNA topoisomerase II [5]) | IC50 (DNA topoisomerase II [6]) | Drug uptake [9] | Drug uptake [16] | IC50 (L02) | Activity (HepG2 [7]) | Activity (HepG2 [8]) | Activity (HepG2 [10]) | Activity (HepG2 [11]) | Activity (HepG2 [12]) | Activity (HepG2 [13]) | Activity (HepG2 [14]) | Activity (HepG2 [15]) | Activity (HepG2 [17]) | Activity (HepG2 [18]) |
| --- | --- | --- | --- | --- | --- | --- | --- | --- | --- | --- | --- | --- | --- | --- | --- | --- | --- | --- | --- |
| O=C1c2ccccc2C(=O)c2c(O)c(C(O)c3cccs3)cc(O)c21 (centres undefined) | 37.9 µM | 16.6 µM | > 50 µM | 28.9 µM | 36.2 µM | 45 µM |  |  | > 50 µM |  |  |  |  |  |  |  |  |  |  |
| CC(C)=CC[C@@H](O)C1=CC(=O)c2c(O)ccc(O)c2C1=O [SHIKONIN] | 6.2 µM | 12.5 µM | 5.7 µM | 16 µM | 6.7 µM | 7.8 µM |  |  | 13 µM |  |  |  |  |  |  |  |  |  |  |
| CSc1ccc(C(c2cc(O)c3c(c2O)C(=O)c2ccccc2C3=O)N(CCCl)CCCl)cc1 (centres undefined) | 20.6 µM | 15.4 µM | 39.3 µM | > 50 µM | > 50 µM | 41.4 µM |  |  | > 50 µM |  |  |  |  |  |  |  |  |  |  |
| COc1cccc2c1C(=O)c1c(O)c3c(c(O)c1C2=O)C[C@@](O)(C(=O)CO)C[C@@H]3O[C@H]1C[C@H](N)[C@H](O)[C@H](C)O1 [DOXORUBICIN] | 2.6 µM | 1.2 µM | 1.5 µM | 2.3 µM | 3.3 µM | 3.8 µM |  |  | 3.5 µM |  |  |  |  |  |  |  |  |  |  |
| O=C1c2ccccc2C(=O)c2c(O)c(C(c3ccc(C(F)(F)F)cc3)N(CCCl)CCCl)cc(O)c21 (centres undefined) | > 50 µM | 16.1 µM | > 50 µM | > 50 µM | > 50 µM | > 50 µM |  |  | > 50 µM |  |  |  |  |  |  |  |  |  |  |
| O=C1c2ccccc2C(=O)c2c(O)c(C(c3ccc(OC(F)(F)F)cc3)N(CCCl)CCCl)cc(O)c21 (centres undefined) | > 50 µM | 11.3 µM | 42.8 µM | > 50 µM | > 50 µM | 34.8 µM |  |  | > 50 µM |  |  |  |  |  |  |  |  |  |  |
| O=C1c2ccccc2C(=O)c2c(O)c(C(O)c3ccc(Br)s3)cc(O)c21 (centres undefined) | 25.1 µM | 14.4 µM | 39.4 µM | 23 µM | 48.1 µM | 43.9 µM |  |  | > 50 µM |  |  |  |  |  |  |  |  |  |  |
| O=C1c2ccccc2C(=O)c2c(O)c(C(O)c3cc(Br)cs3)cc(O)c21 (centres undefined) | 23.9 µM | 19.7 µM | 17.5 µM | 41.5 µM | 18.4 µM | 33.3 µM |  |  | > 50 µM |  |  |  |  |  |  |  |  |  |  |
| O=C1c2ccccc2C(=O)c2c(O)c(C(c3ccsc3)N(CCCl)CCCl)cc(O)c21 (centres undefined) | 13.7 µM | 23.1 µM | 22.5 µM | 21.9 µM | 19.3 µM | 22.4 µM |  |  | 35.4 µM |  |  |  |  |  |  |  |  |  |  |
| O=C1c2ccccc2C(=O)c2c(O)ccc(O)c21 [QUINIZARIN] | > 200 µM | > 200 µM | > 200 µM | > 200 µM | > 200 µM | > 200 µM |  |  | > 200 µM |  |  |  |  |  |  |  |  |  |  |
